Experimental findings from patent US20090036474A1, “Quinazoline derivatives for use against cancer” (priority 2004, published 2009) are described below.

One experiment deals with T1, PDGFRα tyrosine kinase (Homo sapiens, UniProt P16234).
T1 construct: PDGFRα, PDGFRβ and KDR receptor cytoplasmic domains, obtained by expression of recombinant protein in insect cells; purchased Upstate Biotechnology Inc. 14-467; host or cells: Sf9 insect cells
Put plainly: In vitro enzyme assay (ELISA), Test (a), PDGFRα. The settings on record: ATP 14 μM, read-out: IC50 versus PDGFRα tyrosine kinase. It counts as biochemical. As to the method: The ability of test compounds to inhibit the phosphorylation of a tyrosine containing polypeptide substrate by the tyrosine kinase enzymes PDGFRα, PDGFRβ and KDR was assessed using conventional ELISA assays. DNA encoding the PDGFRα, PDGFRβ or KDR receptor cytoplasmic domains may be obtained by total gene synthesis (International Biotechnology Lab., 1987, 5(3), 19-25) or by cloning. The DNA fragments may be expressed in a suitable expression system to obtain polypeptide with tyrosine kinase activity. For example, PDGFRα, PDGFRβ and KDR receptor cytoplasmic domains, obtained by expression of recombinant protein in insect cells, can be shown to display intrinsic tyrosine kinase activity. In the case of the VEGF receptor KDR (Genbank Accession No. L04947), a DNA fragment encoding most of the cytoplasmic domain, commencing with methionine 806 and including the termination codon may be cloned into a baculovirus transplacement vector [for example pAcYM1 (see The Baculovirus Expression System: A Laboratory Guide, L. A. King and R. D. Possee, Chapman and Hall, 1992) or pAc360 or pBlueBacHis (available from Invitrogen Corporation)]. This recombinant construct may be co-transfected into insect cells [for example Spodoptera frugiperda 21(Sf21) or Spodoptera frugiperda 9(Sf9)] with viral DNA (for example Pharmingen BaculoGold) to prepare recombinant baculovirus. […]
For orientation: ELISA stands for enzyme-linked immunosorbent assay.

Another experiment deals with T2, KDR tyrosine kinase (Homo sapiens, UniProt P35968).
T2 construct: a DNA fragment encoding most of the cytoplasmic domain, commencing with methionine 806 and including the termination codon; made in house; host or cells: Sf9 insect cells (recombinant baculovirus)
Briefly: In vitro enzyme assay (ELISA), Test (a), KDR. It is filed as biochemical. The settings on record: ATP 8 μM, read-out: IC50 versus KDR tyrosine kinase. As to the method:
The ability of test compounds to inhibit the phosphorylation of a tyrosine containing polypeptide substrate by the tyrosine kinase enzymes PDGFRα, PDGFRβ and KDR was assessed using conventional ELISA assays. DNA encoding the PDGFRα, PDGFRβ or KDR receptor cytoplasmic domains may be obtained by total gene synthesis (International Biotechnology Lab., 1987, 5(3), 19-25) or by cloning. The DNA fragments may be expressed in a suitable expression system to obtain polypeptide with tyrosine kinase activity. For example, PDGFRα, PDGFRβ and KDR receptor cytoplasmic domains, obtained by expression of recombinant protein in insect cells, can be shown to display intrinsic tyrosine kinase activity. In the case of the VEGF receptor KDR (Genbank Accession No. L04947), a DNA fragment encoding most of the cytoplasmic domain, commencing with methionine 806 and including the termination codon may be cloned into a baculovirus transplacement vector [for example pAcYM1 (see The Baculovirus Expression System: A Laboratory Guide, L. A. King and R. D. Possee, Chapman and Hall, 1992) or pAc360 or pBlueBacHis (available from Invitrogen Corporation)]. This recombinant construct may be co-transfected into insect cells [for example Spodoptera frugiperda 21(Sf21) or Spodoptera frugiperda 9(Sf9)] with viral DNA (for example Pharmingen BaculoGold) to prepare recombinant baculovirus. Details of the methods for the assembly of recombinant DNA molecules and the preparation and use of recombinant baculovirus can be found in standard texts, for example Sambrook et al., 1989, Molecular cloning—A Laboratory Manual, 2nd edition, Cold Spring Harbour Laboratory Press and O'Reilly et al., 1992, Baculovirus Expression Vectors—A Laboratory Manual, W. H. Freeman and Co, New York).
For expression, Sf9 cells were infected with plaque-pure KDR recombinant virus and harvested 48 hours later. […]

T2 sequence (P35968 786-1356 limits assumed): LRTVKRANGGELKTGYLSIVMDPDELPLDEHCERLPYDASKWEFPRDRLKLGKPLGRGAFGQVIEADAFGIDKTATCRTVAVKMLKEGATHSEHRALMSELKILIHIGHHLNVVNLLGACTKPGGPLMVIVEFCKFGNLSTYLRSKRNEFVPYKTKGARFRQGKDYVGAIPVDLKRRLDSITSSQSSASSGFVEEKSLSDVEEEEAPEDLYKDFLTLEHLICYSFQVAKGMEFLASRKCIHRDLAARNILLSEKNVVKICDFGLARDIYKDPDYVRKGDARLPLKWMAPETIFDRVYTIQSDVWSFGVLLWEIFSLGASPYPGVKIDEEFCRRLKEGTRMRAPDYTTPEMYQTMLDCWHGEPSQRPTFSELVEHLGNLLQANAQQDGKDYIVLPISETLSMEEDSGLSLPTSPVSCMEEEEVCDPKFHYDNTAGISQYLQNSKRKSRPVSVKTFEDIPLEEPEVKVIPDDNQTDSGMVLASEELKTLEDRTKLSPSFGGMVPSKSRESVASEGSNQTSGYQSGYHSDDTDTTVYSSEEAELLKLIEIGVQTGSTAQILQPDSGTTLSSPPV
T1 sequence (P16234 550-1089 limits assumed): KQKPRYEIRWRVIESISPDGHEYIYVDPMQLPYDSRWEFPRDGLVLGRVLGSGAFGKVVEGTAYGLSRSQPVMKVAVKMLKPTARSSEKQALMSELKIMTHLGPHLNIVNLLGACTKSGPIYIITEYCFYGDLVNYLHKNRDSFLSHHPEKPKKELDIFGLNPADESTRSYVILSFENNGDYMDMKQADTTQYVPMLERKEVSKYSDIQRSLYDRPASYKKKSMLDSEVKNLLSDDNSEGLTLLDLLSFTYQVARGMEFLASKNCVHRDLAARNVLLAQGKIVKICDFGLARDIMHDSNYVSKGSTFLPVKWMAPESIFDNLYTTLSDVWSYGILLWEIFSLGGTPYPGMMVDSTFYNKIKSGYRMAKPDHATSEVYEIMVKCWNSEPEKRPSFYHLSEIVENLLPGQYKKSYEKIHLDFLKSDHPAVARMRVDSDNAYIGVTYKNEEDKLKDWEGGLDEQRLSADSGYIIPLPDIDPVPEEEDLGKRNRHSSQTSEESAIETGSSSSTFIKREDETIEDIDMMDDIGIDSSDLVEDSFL

Regarding `COc1cc2ncnc(Oc3cnn(CC(=O)Nc4cccc5c4OCO5)c3)c2cc1OC` [Example 2, N-(2,3-methylenedioxyphenyl)-2-[4-(6,7-dimethoxyquinazolin-4-yloxy)pyrazol-1-yl]acetamide], the IC50 at PDGFRα tyrosine kinase is ~100 nM; at KDR tyrosine kinase, ~1 nM.

Broadly, the IC50 is the concentration that inhibits the measured activity by half.
